Data on 15 compounds can be found in US8268996B2, “Compounds and compositions as cathepsin S inhibitors” (IRM LLC, priority 2004, dated 2012).

What all share (format): biochemical
The target in one experiment is T1, Cathepsin K (Homo sapiens, UniProt P43235).
T1 sequence (P43235 115-329): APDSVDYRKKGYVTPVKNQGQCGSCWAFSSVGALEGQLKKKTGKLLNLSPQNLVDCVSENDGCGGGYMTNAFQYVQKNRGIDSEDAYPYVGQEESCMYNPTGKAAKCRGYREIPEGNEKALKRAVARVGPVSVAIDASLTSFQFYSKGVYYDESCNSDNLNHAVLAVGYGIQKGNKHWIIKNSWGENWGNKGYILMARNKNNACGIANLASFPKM
In words: Cathepsin K Assay. The note with it: for Ki: pH5.5, 20 minutes incubation at room temperature, substrate 40 μM, fluorescence. How it is done:
(§1) Kinetic measurements are performed in a total reaction volume of 30 μl in 384-well microtiter plates. […] Control reactions in the absence of inhibitor are performed in replicates of 24. The reactions are initiated by adding the substrate, acetyl-lysine-histidine-proline-lysine-amino carbamoyl coumarin, to a final concentration of 40 μM. The rate of substrate hydrolysis is measured by monitoring the increase in fluorescence at an excitation wavelength of 380 nm and an emission wavelength of 450 nm that results from cleavage of the aniline bond in the substrate by the enzyme. The apparent inhibition constants for the compounds are determined from the enzyme progress curves and are then used to calculate the inhibition constants for competitive inhibitors.

The target in a further experiment is Cathepsin B (Homo sapiens, UniProt P07858). Kind of experiment: Cathepsin B Assay. To be noted: for Ki: pH5.5, 20 minutes incubation at room temperature, substrate 10 μM, fluorescence. The method, then:
as §1, with “acetyl-histidine-proline-valine-lysine-amino” for “acetyl-lysine-histidine-proline-lysine-amino”, “10” for “40”

For another experiment, the target named is Cathepsin S (Homo sapiens, UniProt P25774). In words: Cathepsin S Assay. How it is done: as §1, with “acetyl-histidine-proline-valine-lysine-amino” for “acetyl-lysine-histidine-proline-lysine-amino”, “50” for “40”
Sequence of Cathepsin S (P25774 115-331): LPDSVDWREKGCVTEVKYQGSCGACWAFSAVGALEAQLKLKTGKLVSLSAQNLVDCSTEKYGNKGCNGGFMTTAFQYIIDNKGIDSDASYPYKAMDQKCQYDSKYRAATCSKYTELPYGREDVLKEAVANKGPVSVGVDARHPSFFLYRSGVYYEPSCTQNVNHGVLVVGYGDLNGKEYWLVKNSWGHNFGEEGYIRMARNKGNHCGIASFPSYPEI
The target in another experiment is Cathepsin L (Homo sapiens, UniProt P07711). Kind of experiment: Cathepsin L Assay. To be noted: for Ki: pH5.5, 20 minutes incubation at room temperature, substrate 20 μM, fluorescence. The method, then:
as §1, with “acetyl-histidine-lysine-phenylalanine-lysine-amino” for “acetyl-lysine-histidine-proline-lysine-amino”, “20” for “40”

The mark [1] stands for this setting: ratio of isozyme inhibition constant to cathepsin S inhibition constant.

Sequence of Cathepsin L (P07711 114-333, species assumed): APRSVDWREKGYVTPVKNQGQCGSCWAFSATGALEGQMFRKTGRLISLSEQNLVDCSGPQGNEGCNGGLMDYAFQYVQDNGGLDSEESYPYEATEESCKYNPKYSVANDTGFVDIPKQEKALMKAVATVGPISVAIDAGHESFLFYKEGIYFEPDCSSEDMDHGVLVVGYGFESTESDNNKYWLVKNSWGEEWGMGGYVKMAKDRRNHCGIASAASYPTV

As to `O=C(N[C@H](C(=O)c1nc2ccccc2o1)C1CC1)O[C@@H](CC1CCCCC1)C(=O)N1CCOCC1` [Example 1, 2-cyclohexyl-(1S)-(morpholine-4-carbonyl)ethyl 2-(benzooxazol-2-yl)-(1S)-cyclopropyl-2-oxo-ethyl carbamate], the inhibitory constant (Ki) on Cathepsin K is 5160 nM; at Cathepsin B, over 47500 nM; on Cathepsin S it was 6.6 nM; at Cathepsin L, over 23300 nM. In addition, at Cathepsin K (setting [1]), the “selectivity for cathepsin S over cathepsin K” value is given as “at least 100 fold”. The “selectivity for cathepsin S over cathepsin B” value on Cathepsin B (setting [1]) is recorded as “at least 100 fold”. This compound had an IC50 at Cathepsin S of 6.6 nM. The “selectivity for cathepsin S over cathepsin L” value at Cathepsin L (setting [1]) was “at least 100 fold”.
Consider `C[C@H](NC(=O)O[C@@H](CS(=O)(=O)Cc1ccccc1)C(=O)N1CCOCC1)C(=O)c1nc2ccccc2o1` [Example 2, 2-phenylmethanesulfonyl-(1R)-(morpholine-4-carbonyl)ethyl 2-(benzoxazol-2-yl)-(1S)-methyl-2-oxo-ethyl carbamate], for which the inhibition constant (Ki) on Cathepsin K is over 100000 nM; on Cathepsin B it was over 100000 nM; at Cathepsin S, 488 nM; at Cathepsin L, over 100000 nM.
In the case of `N#C[C@H](COCc1ccccc1Cl)NC(=O)O[C@@H](CC1CCCCC1)C(=O)N1CCOCC1` [Example 8, (1S)-cyclohexylmethyl-2-morpholin-4-yl-2-oxo-ethyl 2-(2-chloro-benzyloxy)-(1R)-cyano-ethyl carbamate], the Ki at Cathepsin K is 13800 nM; at Cathepsin B it was over 30000 nM; on Cathepsin S, 31.4 nM; at Cathepsin L, over 22600 nM.
For `CCC[C@H](NC(=O)O[C@@H](CC1CCCCC1)C(=O)N1CCCC1)C(=O)c1nc2ccccc2o1` [Example 27, (1S)-cyclohexylmethyl-2-oxo-2-(pyrrolidin-1-yl)-ethyl(1S)-(benzoxazole-2-carbonyl)-butyl carbamate], the Ki on Cathepsin K worked out at 211 nM; on Cathepsin B, 5700 nM; on Cathepsin S, 0.8 nM; at Cathepsin L it was 2030 nM.
On the same counts, the results for `O=C(N[C@H](C(=O)c1nc2ccc(F)cc2o1)C1CC1)O[C@@H](CC1CCCCC1)C(=O)N1CCOCC1` [Example 40, 2-cyclohexyl-(1S)-(morpholine-4-carbonyl)ethyl(1S)-cyclopropyl-2-(6-fluoro-benzoxazol-2-yl)-2-oxo-ethyl carbamate] are 2130 nM, over 30000 nM, 2.1 nM and 15300 nM.
On the same counts, the results for `CC[C@H](NC(=O)O[C@@H](CC1CCCCC1)C(=O)N1CCCC1)C(=O)c1nc2ccc(F)cc2o1` [Example 55, (1S)-cyclohexylmethyl-2-oxo-2-(pyrrolidin-1-yl)-ethyl(1S)-(6-fluoro-benzoxazole-2-carbonyl)-propyl carbamate] are 188 nM, 9090 nM, 0.9 nM and 3970 nM.
For the compound `CC[C@H](NC(=O)O[C@@H](CC1CCCCC1)C(=O)N1CCOCC1)C(=O)c1nc2ccc(C)cc2o1` [Example 47, 2-cyclohexyl-(1S)-(morpholine-4-carbonyl)ethyl(1S)-(6-methyl-benzoxazole-2-carbonyl)-propyl carbamate], the inhibitory constant (Ki) on Cathepsin K is 205 nM; on Cathepsin B it was over 30000 nM; on Cathepsin S, 1.1 nM; on Cathepsin L it was 2170 nM.
As to `CC[C@H](NC(=O)O[C@@H](CC1CCCCC1)C(=O)N1CCOCC1)C(=O)c1nc2cc(Cl)ccc2o1` [Example 48, 2-cyclohexyl-(1S)-(morpholine-4-carbonyl)ethyl(1S)-(5-chloro-benzoxazole-2-carbonyl)-propyl carbamate], the Ki on Cathepsin K was 481 nM; on Cathepsin B it was 1880 nM; on Cathepsin S, 2.8 nM; on Cathepsin L, 2750 nM.
The like results for `CCC[C@H](NC(=O)O[C@H](C(=O)N1CCOCC1)C1CCCCC1)C(=O)c1nc2ccccc2o1` [Example 46, (1S)-cyclohexyl-1-(morpholine-4-carbonyl)methyl(1S)-(benzoxazole-2-carbonyl)-butyl carbamate] were, in that order, 113 nM, 4040 nM, 1.6 nM and 2210 nM.
The like results for `CCC[C@H](NC(=O)O[C@@H](CC1CCCCC1)C(=O)N1CCOCC1)C(=O)c1nc2cc(F)ccc2o1` [Example 54, 2-cyclohexyl-(1S)-(morpholine-4-carbonyl)ethyl(1S)-(5-fluoro-benzoxazole-2-carbonyl)-butyl carbamate] were, in that order, 482 nM, 4360 nM, 1.8 nM and 2310 nM.
The like results for `CC[C@H](NC(=O)O[C@@H](CC1CCCCC1)C(=O)N1CCOCC1)C(=O)c1nc2cccnc2o1` [Example 39, 2-cyclohexyl-(1S)-(morpholine-4-carbonyl)ethyl(1S)-(oxazolo[5,4-b]pyridine-2-carbonyl)-propyl carbamate] were, in that order, 260 nM, 5220 nM, 0.4 nM and 1310 nM.
Consider `CC[C@H](NC(=O)O[C@@H](CC1CCCCC1)C(=O)N(C)C)C(=O)c1nc2ccccc2o1` [Example 43, 2-cyclohexyl-(1S)-dimethylcarbamoyl-ethyl(1S)-(benzoxazole-2-carbonyl)-propyl carbamate], for which the Ki is 250 nM at Cathepsin K, 16000 nM on Cathepsin B, 3.6 nM at Cathepsin S and 4650 nM on Cathepsin L.
For the compound `CCC[C@H](NC(=O)O[C@@H](CC1CCCCC1)C(=O)N1CCOCC1)C(=O)c1nc2ccc(F)cc2o1` [Example 44, 2-cyclohexyl-(1S)-(morpholine-4-carbonyl)ethyl(1S)-(6-fluoro-benzoxazole-2-carbonyl)-butyl carbamate], the inhibitory constant (Ki) at Cathepsin K is 483 nM; on Cathepsin B, 9700 nM; on Cathepsin S, 0.5 nM; on Cathepsin L, 3610 nM.
For `O=C(N[C@H]1COCC1=O)O[C@@H](CC1CCCCC1)C(=O)N1CCOCC1` [Example 5, 2-cyclohexyl-(1S)-(morpholine-4-carbonyl)ethyl 4-oxo-tetrahydro-furan-(3S)-yl carbamate], the inhibition constant Ki at Cathepsin K was over 30000 nM; on Cathepsin B it was over 100000 nM; on Cathepsin S, 892 nM; at Cathepsin L it was over 100000 nM.
In the case of `CC[C@H](NC(=O)O[C@H](C(=O)N1CCOCC1)C1CCCCC1)C(=O)c1nc2ccc(F)cc2o1` [Example 42, (1S)-cyclohexyl-1-(morpholine-4-carbonyl)methyl(1S)-(6-fluoro-benzoxazole-2-carbonyl)-propyl carbamate], the Ki worked out at 278 nM at Cathepsin K, 16700 nM on Cathepsin B, 4.6 nM at Cathepsin S and 9500 nM on Cathepsin L.

The term Ki denotes a dissociation constant, usually derived from enzyme kinetics or from competition with a known ligand. Read a low Ki as a stronger hold on the target. Broadly, the IC50 is the concentration needed to halve the response being measured. A lower IC50 goes with greater potency.
